Experimental findings from ChEMBL document CHEMBL1641592, “Benzopyrazine derivatives: A novel class of growth factor receptor bound protein 7 antagonists” (Bioorg Med Chem, 2011) are described below.

Structures are written as SMILES. pIC50: −log10 of the molar value.

The term ΔTm denotes the change in melting temperature against a reference sample. In general, pIC50 refers to −log10 of the IC50, conventionally taken in molar units. A lower pIC50 goes with a large IC50.

Assay [1] addresses Growth factor receptor-bound protein 7 (Homo sapiens) (UniProt Q14451).
Description: Binding affinity to human GRB7 SH2-apo domain expressed in Escherichia coli BL21 (DE3) assessed as change in melting temperature at 200 uM by thermofluor based melting point shift assay
The target is the same in assay [2]. The source holds these as a separate data set.
Description: Binding affinity to human GRB7 SH2-apo domain expressed in Escherichia coli BL21 (DE3) assessed as change in melting temperature at 100 uM by thermofluor based melting point shift assay
The subject of the next assay is MDA-MB-468. Kind of assay: Cytotoxicity against human MDA-MB-468 cells after 4 days by SRB assay. Conditions: MDA-MB-468, 96 h. For orientation: Sulforhodamine B stains cellular protein and so reports cell mass.

Growth factor receptor-bound protein 7 (Homo sapiens), sequence (Q14451 whole entry): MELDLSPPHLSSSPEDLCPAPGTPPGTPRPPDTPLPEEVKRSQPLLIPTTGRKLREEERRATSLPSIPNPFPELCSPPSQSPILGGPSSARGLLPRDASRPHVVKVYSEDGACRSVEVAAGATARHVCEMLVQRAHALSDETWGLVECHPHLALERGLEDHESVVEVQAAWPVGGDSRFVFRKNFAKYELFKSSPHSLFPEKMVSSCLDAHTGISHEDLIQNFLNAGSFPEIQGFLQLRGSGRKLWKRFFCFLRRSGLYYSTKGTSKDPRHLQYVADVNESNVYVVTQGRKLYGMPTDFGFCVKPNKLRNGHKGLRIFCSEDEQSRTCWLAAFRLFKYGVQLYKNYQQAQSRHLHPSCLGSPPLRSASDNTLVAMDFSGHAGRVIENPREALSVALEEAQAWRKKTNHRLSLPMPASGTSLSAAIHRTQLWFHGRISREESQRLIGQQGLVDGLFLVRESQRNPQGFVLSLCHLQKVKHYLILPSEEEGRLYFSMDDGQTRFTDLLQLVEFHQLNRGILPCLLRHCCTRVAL

Regarding `COC(=O)C(=O)C(C(=O)C(=O)Nc1cc([N+](=O)[O-])ccc1C#N)c1nc2ccccc2nc1O` (stereo not drawn), the figures for the ΔTm in assay [1] and in assay [2] were 0.95 °C and 1.2 °C, respectively. The corresponding values for `COC(=O)C(=O)C(C(=O)C(=O)Nc1cccc(C(C)=O)c1)c1nc2ccc([N+](=O)[O-])cc2nc1O` (stereo not drawn) are 0.55 °C and 0.45 °C. For the molecule `COC(=O)C(=O)C(C(=O)C(=O)Nc1ccccc1C(N)=O)c1nc2ccc(C(=O)c3ccccc3)cc2nc1O` (stereo not drawn), the pIC50 with MDA-MB-468 is 4.07. Take `COC(=O)C(=O)C(C(=O)C(=O)Nc1ccc(C(N)=O)cc1)c1nc2ccc([N+](=O)[O-])cc2nc1O` (stereo not drawn): the ΔTm in assay [1] stood at 0.85 °C; in assay [2], 0.45 °C. Consider `COC(=O)C(=O)C(C(=O)C(=O)Nc1cc(C)ccc1C)c1nc2ccccc2nc1O` (stereo not drawn), for which the ΔTm was 0.6 °C in assay [1] and 0.9 °C in assay [2]. Take `COC(=O)C(=O)C(C(=O)C(=O)Nc1ccccc1C(C)=O)c1nc2ccc(C(=O)c3ccccc3)cc2nc1O` (stereo not drawn): the ΔTm in assay [1] turned out to be 0.55 °C; in assay [2], 0.05 °C. As for `C[C@@H](O)[C@@H]1NC(=O)[C@H](CC(N)=O)NC(=O)[C@H](CC(=O)O)NC(=O)[C@H](Cc2ccc(O)cc2)NC(=O)CNC(=O)[C@@H](CCC(=O)O)NC(=O)[C@H](Cc2ccccc2)NC(=O)[C@H](Cc2c[nH]c3ccccc23)NC(=O)CSC[C@@H](C(=O)O)NC(=O)[C@@H]2CCCN2C(=O)[C@H](Cc2ccccc2)NC1=O`, the ΔTm turned out to be 1.85 °C in assay [1] and 1.35 °C in assay [2].
